# From patent US20080269162A1, “Novel Medicaments for Anti-Retroviral Treatments” (priority 2006, published 2008)
# Where “and” joins values, the source holds several entries; their conditions need not be identical. Equal values may be shown once.
# System: NDK (clade D) virus
# Experiment: RT activity and cell number as a function of the moment of incorporation, NDK virus
# Type: cell-based, HIV
# Details: 0.1 μM; for Number of cells, J7: day 7; for Number of cells, J3 / Quantity of RT measured, J3: day 3
# Excerpt: The procedure was the same as that previously indicated with regard to the experiments carried out on MT4 cells; e.g., as in Example 2A.
# The results of the measurements done on days 3 and 7 are summarized in Table D; RT activity is expressed in dpm/mL and cells are expressed in 10^6 cells/mL.
# [1] = Continously, before, during and after
substance,measurement,setting,value
3′-azidothymidine [AZT],"Number of cells, J7",,3.2 10^6 Cells/mL and 1.6 10^6 Cells/mL
same,"Number of cells, J3",After infection,1.2 10^6 Cells/mL and 0.8 10^6 Cells/mL
same,"Quantity of RT measured, J3",After infection,1249 dpm/mL and 956 dpm/mL
same,"Number of cells, J7",After infection,1.8 10^6 Cells/mL and 3.2 10^6 Cells/mL
same,"Number of cells, J3",Before infection,1.4 10^6 Cells/mL and 0.8 10^6 Cells/mL
same,"Number of cells, J7",Before infection,2 10^6 Cells/mL and 3.8 10^6 Cells/mL
same,"Number of cells, J3",[1],1.7 10^6 Cells/mL and 1.3 10^6 Cells/mL
same,"Quantity of RT measured, J3",[1],399 dpm/mL and 750 dpm/mL
same,"Number of cells, J7",[1],3.6 10^6 Cells/mL and 3.2 10^6 Cells/mL
same,"Number of cells, J3",During dining room,1.9 10^6 Cells/mL and 1.6 10^6 Cells/mL
same,"Quantity of RT measured, J3",During dining room,1529 dpm/mL and 956 dpm/mL
